Our source for the IC50 and EC50 values is patent US20220033406A1, “C[…] AS ANTI-VIRALS” (priority 2018, published 2022).

For experiment [1], the target named is T1, Recombinant full-length HIV-1 Reverse Transcriptase (HIVrt) (Human immunodeficiency virus type 1 group M subtype B, UniProt P04585).
T1 construct: Recombinant full-length HIV-1 Reverse Transcriptase (HIVrt); purchased Abcam ab63979
The experiment in a line: Inhibition of HIV reverse transcriptase (RdDp assay). The experiment is classed as biochemical. As to conditions: 1 nM HIVrt, 30° C., 40 min, 3H-TTP incorporation; Table 3 triphosphates. How it is done: Recombinant full-length HIV-1 Reverse Transcriptase (HIVrt) was purchased from Abcam, catalog #ab63979. The last 385 nucleotide region of the HCV anti-genome complementary to the 5′ untranslated region (c5′UTR) was synthesized using T7 RNA polymerase Megascript kit from Ambion (Cat #AM1333). A DNA oligo served as an internal initiation primer and was purchased from IDT. Unless otherwise specified, reaction samples consisted of 20 nM c5′UTR RNA, 100 nM DNA primer, and 1 nM HIVrt, mixed together in a buffer containing 50 mM Tris pH 7.5, 100 mM KCl, 4 mM dithiothreitol (DTT), and 12.5 mM MgCl2. Reactions were initiated at 30° C. by adding 0.1 μM adenosine triphosphate (dATP), 0.1 μM cytosine triphosphate (dCTP), 1 μM guanosine triphosphate (dGTP), and 0.32 μM ^3H-thymidine triphosphate (^3H-TTP), in a final volume of 50 μL. After 40-mins incubation, the reaction was terminated by adding 60 μL of chilled 20% (w/v) trichloroacetic acid with 500 μM ATP to precipitate nucleic acids. After incubation at 4° C. for 1 h, the sample underwent filtration on a multiscreen BV […] 96-well plate (Millipore). 40 μL Microscint-20 (Perkin Elmer) was added to the well and the counts in the sample were determined by a Trilux Microbeta microplate scintillation reader (Wallac).
All data were analyzed with GraphPad Prism. The compound concentration at which the enzyme-catalyzed rate was reduced by 50% (IC50) was calculated by fitting the data to the equation Y=% Min+(% Max−% Min)/(1+X/IC50), where Y corresponds to the percent relative enzyme activity, % Min is the residual relative activity at saturating compound concentration, % Max is the relative maximum enzyme activity, and X corresponds to the compound concentration. The Ki was calculated using the Cheng-Prusoff equation assuming competitive inhibition relative to natural dNTP incorporation: K=IC50/(1+[dNTP]/Km), where [dNTP] is the concentration of natural dNTP and Km is the apparent Km for dNTP. The standard HIVrt RNA-dependent DNA polymerization (RdDp) assay was used to determine the IC50 values.

The target of experiment [2] is T2, Recombinant full-length HBV polymerase (HBVpol) (Hepatitis B virus genotype D subtype ayw, UniProt P03156).
T2 construct: Recombinant full-length HBV polymerase(HBVpol) was expressed in SF9 cells; made in house; host or cells: SF9 insect cells
Kind of experiment: Inhibition of HBV polymerase (RdDp assay). To be noted: HBVpol expressed in SF9 cells, 30° C., 120 min, 3H-TTP incorporation; Table 3 triphosphates; read-out: HBVrt IC50. The experiment is classed as biochemical.

The subject of another experiment is HBV. Kind of experiment: Inhibition of HBV in HepG2.117 cells (anti-HBV activity, qPCR). The experiment is classed as cell-based. To be noted: Hepatitis B virus, HepG2.117, 96 h, HBV viral DNA copy numbers in supernatant by qPCR. Background: Quantitative PCR measures a nucleic acid by following its amplification.
Experiment [3] deals with VSV-G pseudotyped HIV NL4-3. Kind of experiment: microbe, parasite or virus in culture. As to conditions: Human immunodeficiency virus 1, NL43, 72 h, read-out: HIV EC50 (uM). Format: cell-based.

Bounds are passed on as bounds.

In general, IC50 refers to the point on the concentration scale where inhibition reaches its midpoint. Broadly, the EC50 is the concentration giving half of the maximal effect.

T2 sequence (P03156 whole entry): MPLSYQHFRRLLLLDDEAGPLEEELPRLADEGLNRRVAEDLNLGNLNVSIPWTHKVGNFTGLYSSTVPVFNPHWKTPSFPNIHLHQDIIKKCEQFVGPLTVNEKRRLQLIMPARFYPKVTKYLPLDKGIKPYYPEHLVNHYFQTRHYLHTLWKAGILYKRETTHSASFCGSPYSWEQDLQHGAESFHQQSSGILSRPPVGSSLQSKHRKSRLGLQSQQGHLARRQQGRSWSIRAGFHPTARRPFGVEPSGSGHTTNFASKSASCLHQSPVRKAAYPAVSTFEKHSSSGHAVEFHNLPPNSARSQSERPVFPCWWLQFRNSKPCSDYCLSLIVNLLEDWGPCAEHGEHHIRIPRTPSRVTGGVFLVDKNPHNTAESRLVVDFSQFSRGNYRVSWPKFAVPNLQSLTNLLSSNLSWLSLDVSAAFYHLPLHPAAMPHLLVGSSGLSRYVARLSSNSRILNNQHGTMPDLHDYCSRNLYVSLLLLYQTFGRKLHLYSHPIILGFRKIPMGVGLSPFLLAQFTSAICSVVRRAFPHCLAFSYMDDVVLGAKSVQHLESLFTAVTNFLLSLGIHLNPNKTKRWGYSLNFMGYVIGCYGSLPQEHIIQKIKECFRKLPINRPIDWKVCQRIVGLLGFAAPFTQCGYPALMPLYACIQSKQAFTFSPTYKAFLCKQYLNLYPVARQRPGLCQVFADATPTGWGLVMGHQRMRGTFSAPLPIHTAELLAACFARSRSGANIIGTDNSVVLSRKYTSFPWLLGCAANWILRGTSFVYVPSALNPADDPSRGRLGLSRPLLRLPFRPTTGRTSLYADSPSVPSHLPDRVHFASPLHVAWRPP

As for `C=C1[C@@H](n2cnc3c(=O)[nH]c(N)nc32)C[C@H](O)[C@@]1(CF)COP(=O)(O)OP(=O)(O)OP(=O)(O)O` [Example 28, ((1S,3S,5S)-3-(2-Amino-6-oxo-1,6-dihydro-9H-purin-9-yl)-1-(fluoromethyl)-5-hydroxy-2-methylenecyclopentyl)methyl Tetrahydrogen Triphosphate], the IC50 in experiment [1] is 749 nM.
With `C=C1[C@@H](n2cc(C)c(=O)[nH]c2=O)C[C@H](O)[C@@]1(C#N)COP(=O)(O)OP(=O)(O)OP(=O)(O)O` [Example 32, ((1S,3S,5S)-1-Cyano-5-hydroxy-3-(5-methyl-2,4-dioxo-3,4-dihydropyrimidin-1(2H)-yl)-2-methylenecyclopentyl)methyl Tetrahydrogen Triphosphate], the values for the IC50 in experiment [2] and in experiment [1] were greater than 1000 nM and 476 nM, respectively.
As for `C=C1[C@H](COP(=O)(O)OP(=O)(O)OP(=O)(O)O)[C@@H](O)C[C@@H]1n1ccc2c(N)ncnc21` [Example 22, ((1R,3S,5S)-3-(4-Amino-7H-pyrrolo[2,3-d]pyrimidin-7-yl)-5-hydroxy-2-methylenecyclopentyl)methyl Tetrahydrogen Triphosphate], the IC50 in experiment [1] turned out to be 158 nM.
On the same count and under the same terms, for `C=C1[C@@H](n2cc(C)c(=O)[nH]c2=O)C[C@H](O)[C@@]1(CF)COP(=O)(O)OP(=O)(O)OP(=O)(O)O` [Example 30, ((1S,3S,5S)-1-(Fluoromethyl)-5-hydroxy-3-(5-methyl-2,4-dioxo-3,4-dihydropyrimidin-1(2H)-yl)-2-methylenecyclopentyl)methyl Tetrahydrogen Triphosphate] the value was 1330 nM; for `C=C1[C@@H](n2cnc3c(N)ncnc32)C[C@H](O)[C@@]1(C#N)COP(=O)(O)OP(=O)(O)OP(=O)(O)O` [Example 34, ((1S,3S,5S)-3-(6-Amino-9H-purin-9-yl)-1-cyano-5-hydroxy-2-methylenecyclopentyl)methyl Tetrahydrogen Triphosphate], greater than 10000 nM.
As for `C=C1[C@@H](n2cnc3c(=O)[nH]c(N)nc32)C[C@H](O)[C@@]1(C#N)COP(=O)(O)OP(=O)(O)OP(=O)(O)O` [Example 35, ((1S,3S,5S)-3-(2-Amino-6-oxo-1,6-dihydro-9H-purin-9-yl)-1-cyano-5-hydroxy-2-methylenecyclopentyl)methyl Tetrahydrogen Triphosphate], the IC50 in experiment [1] was 260 nM.
As for `C=C1[C@H](COP(=O)(O)OP(=O)(O)OP(=O)(O)O)[C@@H](O)C[C@@H]1n1ccc2c(=O)[nH]c(N)nc21` [Example 23, ((1R,3S,5S)-3-(2-Amino-4-oxo-3,4-dihydro-7H-pyrrolo[2,3-d]pyrimidin-7-yl)-5-hydroxy-2-methylenecyclopentyl)methyl Tetrahydrogen Triphosphate], the IC50 in experiment [2] worked out at 8.8 nM; in experiment [1] it was 383 nM.
In the same order, the values of `C=C1[C@@H](n2ccc(N)nc2=O)C[C@H](O)[C@@]1(C#N)COP(=O)(O)OP(=O)(O)OP(=O)(O)O` [Example 33, ((1S,3S,5S)-3-(4-Amino-2-oxopyrimidin-1(2H)-yl)-1-cyano-5-hydroxy-2-methylenecyclopentyl)methyl Tetrahydrogen Triphosphate] are 220 nM and 77.9 nM.
Turning to `C=C[C@]1(COP(=O)(O)OP(=O)(O)OP(=O)(O)O)C(=C)[C@@H](n2cnc3c(N)ncnc32)C[C@@H]1O` [Example 37, ((1R,3S,5S)-3-(6-Amino-9H-purin-9-yl)-5-hydroxy-2-methylene-1-vinylcyclopentyl)methyl Tetrahydrogen Triphosphate], in experiment [1], the IC50 was greater than 10000 nM.
In the case of `C#C[C@]1(COP(=O)(O)OP(=O)(O)OP(=O)(O)O)C(=C)[C@@H](n2cnc3c(N)ncnc32)C[C@@H]1O` [Example 36], the IC50 in experiment [1] is 33.1 nM.
As to `C=C1[C@@H](n2cc(C)c(=O)[nH]c2=O)C[C@H](O)[C@@]1(F)COP(=O)(O)OP(=O)(O)OP(=O)(O)O` [Example 24, ((1S,3S,5S)-1-Fluoro-5-hydroxy-3-(5-methyl-2,4-dioxo-3,4-dihydropyrimidin-1(2H)-yl)-2-methylenecyclopentyl)methyl Tetrahydrogen Triphosphate], the IC50 in experiment [2] was 2.9 nM; in experiment [1], 267 nM.
Consider `C=C1[C@@H](n2cnc3c(N)ncnc32)C[C@H](O)[C@@]1(F)COP(=O)(O)OP(=O)(O)OP(=O)(O)O` [Example 26, ((1S,3S,5S)-3-(6-Amino-9H-purin-9-yl)-1-fluoro-5-hydroxy-2-methylenecyclopentyl)methyl Tetrahydrogen Triphosphate], for which the IC50 in experiment [2] amounted to 8.2 nM; in experiment [1] it was 81 nM.
Take `C=C1[C@@H](n2ccc3c(N)ncnc32)C[C@H](O)[C@@]1(F)COP(=O)(O)OP(=O)(O)OP(=O)(O)O` [Example 27, ((1S,3S,5S)-3-(4-Amino-7H-pyrrolo[2,3-d]pyrimidin-7-yl)-1-fluoro-5-hydroxy-2-methylenecyclopentyl)methyl Tetrahydrogen Triphosphate]: the IC50 came to 7.2 nM in experiment [2] and 65.9 nM in experiment [1].
Turning to `C=C1[C@@H](n2cnc3c(N)ncnc32)C[C@H](O)[C@@]1(C#N)CO` [Example 17, (1S,3S,5S)-3-(6-Amino-9H-purin-9-yl)-5-hydroxy-1-(hydroxymethyl)-2-methylenecyclopentane-1-carbonitrile], the figures for the EC50 (with HBV (Table 2 nucleosides); in experiment [3]) were greater than 10000 nM and 2.21 µM, respectively.
Turning to `C=C1[C@@H](n2cnc3c(=O)[nH]c(N)nc32)C[C@H](O)[C@]1(CO)CF` [Example 10, 2-Amino-9-((1S,3S,4S)-3-(fluoromethyl)-4-hydroxy-3-(hydroxymethyl)-2-methylenecyclopentyl)-1,9-dihydro-6H-purin-6-one], the EC50 with HBV (Table 2 nucleosides) amounted to 166 nM; in experiment [3] it was 0.662 µM.
With `C=C1[C@@H](n2cc(C)c(=O)[nH]c2=O)C[C@H](O)[C@@]1(C#N)CO` [Example 15, (1S,3S,5S)-5-Hydroxy-1-(hydroxymethyl)-3-(5-methyl-2,4-dioxo-3,4-dihydropyrimidin-1(2H)-yl)-2-methylenecyclopentane-1-carbonitrile], the EC50 in the experiment with HBV (Table 2 nucleosides) is greater than 10000 nM; in experiment [3], greater than 33.3 µM.
As for `C=C1[C@H](n2cnc3c(N)ncnc32)C[C@H](O)[C@]1(F)CO` [Example 7, (1S,2R,4R)-4-(6-Amino-9H-purin-9-yl)-2-fluoro-2-(hydroxymethyl)-3-methylenecyclopentan-1-ol], the EC50 in the experiment with HBV (Table 2 nucleosides) was greater than 10000 nM; in experiment [3] it was greater than 33.3 µM.
For the compound `C=C1[C@@H](n2cnc3c(=O)[nH]c(N)nc32)C[C@H](O)[C@@]1(F)COP(=O)(O)OP(=O)(O)OP(=O)(O)O` [Example 25, ((1S,3S,5S)-3-(2-Amino-6-oxo-1,6-dihydro-9H-purin-9-yl)-1-fluoro-5-hydroxy-2-methylenecyclopentyl)methyl Tetrahydrogen Triphosphate], the results for the IC50 in experiment [2] and in experiment [1] were 9.9 nM and 251 nM, respectively.
With `C=C1[C@@H](n2cnc3c(N)ncnc32)C[C@H](O)[C@@]1(CCl)COP(=O)(O)OP(=O)(O)OP(=O)(O)O` [Example 31, ((1S,3S,5S)-3-(6-Amino-9H-purin-9-yl)-1-(chloromethyl)-5-hydroxy-2-methylenecyclopentyl)methyl Tetrahydrogen Triphosphate], the IC50 in experiment [1] is 363 nM.
Turning to `C#C[C@]1(CO)C(=C)[C@@H](n2cnc3c(N)ncnc32)C[C@@H]1O` [Example 19, (1S,2R,4S)-4-(6-Amino-9H-purin-9-yl)-2-ethynyl-2-(hydroxymethyl)-3-methylenecyclopentan-1-ol], the EC50 with HBV (Table 2 nucleosides) is greater than 10000 nM; in experiment [3], 0.0665 µM.
With `C=C1[C@@H](n2cnc3c(N)ncnc32)C[C@H](O)[C@@]1(CF)COP(=O)(N[C@@H](C)C(=O)OC(C)C)Oc1ccccc1` (stereo partly drawn) [Example 40, Isopropyl ((((1S,3S,5S)-3-(6-amino-9H-purin-9-yl)-1-(fluoromethyl)-5-hydroxy-2-methylenecyclopentyl)methoxy)(phenoxy)phosphoryl)-L-alaninate], the EC50 stood at 13.7 nM in the experiment with HBV (Table 4 phosphoramidate prodrugs) and 0.144 µM in experiment [3].
